≈ marks a conversion by molar mass, not a printed value.
Columns and labels:
Assay type in all cases: cell-based
Entero. cloacae = experiment: Minimal Inhibitory Concentration, Entero. cloacae; settings: Enterobacter cloacae
Serr. marces. = experiment: Minimal Inhibitory Concentration, Serr. marces.
Staph. aureus S18713 = experiment: Minimal Inhibitory Concentration, Staph. aureus S18713; settings: Staphylococcus aureus
[1] = tested on: Pseudomonas aeruginosa #28; experiment: Minimal Inhibitory Concentration, Pseudomonas aeruginosa #28
Klebs. pneu. = experiment: Minimal Inhibitory Concentration, Klebs. pneu.

Row | SMILES | MIC (Entero. cloacae) | MIC (Serr. marces.) | MIC (Staph. aureus S18713) | MIC [1] | MIC (Klebs. pneu.)
1 | CC1(C)S[C@@H]2[C@H](NC(=O)[C@H](NC(=O)c3ccc(-c4cccc(NS(=O)(=O)c5cccnc5)c4)[nH]c3=O)c3ccccc3)C(=O)N2[C@H]1C(=O)O [Example 10, N-[6-[3-(3-pyridinylsulfonylamino)phenyl]-1,2-dihydro-2-oxonicotinoyl]ampicillin] | 12.5 µg/mL (≈ 17.8 µM) | 100 µg/mL (≈ 142 µM) | > 200 µg/mL | 12.5 µg/mL (≈ 17.8 µM) | 6.3 µg/mL (≈ 8.96 µM)
2 | CC1(C)S[C@@H]2[C@H](NC(=O)[C@H](NC(=O)c3ccc(-c4ccc(NS(=O)(=O)c5cccnc5)cc4)[nH]c3=O)c3ccccc3)C(=O)N2[C@H]1C(=O)O [Example 9, N-[6-[4-(3-pyridinylsulfonylamino)phenyl]-1,2-dihydro-2-oxonicotinoyl]ampicillin] | 12.5 µg/mL (≈ 17.8 µM) | 100 µg/mL (≈ 142 µM) | 100 µg/mL (≈ 142 µM) | 12.5 µg/mL (≈ 17.8 µM) | 6.3 µg/mL (≈ 8.96 µM)
3 | CC1(C)S[C@@H]2[C@H](NC(=O)[C@H](NC(=O)c3ccc(-c4ccc(NS(C)(=O)=O)cc4)[nH]c3=O)c3ccccc3)C(=O)N2[C@H]1C(=O)O [Example 2, N-[6-[4-(Methylsulfonylamino)phenyl]-1,2-dihydro-2-oxonicotinoyl]ampicillin] | 6.3 µg/mL (≈ 9.85 µM) | 50 µg/mL (≈ 78.2 µM) | 100 µg/mL (≈ 156 µM) | 3.1 µg/mL (≈ 4.85 µM) | 3.1 µg/mL (≈ 4.85 µM)
4 | CCCS(=O)(=O)Nc1ccc(-c2ccc(C(=O)N[C@@H](C(=O)N[C@@H]3C(=O)N4[C@@H]3SC(C)(C)[C@@H]4C(=O)O)c3ccccc3)c(=O)[nH]2)cc1 [Example 4, N-[6-[4-(Propylsulfonylamino)phenyl]-1,2-dihydro-2-oxonictinoyl]ampicillin] | 6.3 µg/mL (≈ 9.43 µM) | 50 µg/mL (≈ 74.9 µM) | 100 µg/mL (≈ 150 µM) | 3.1 µg/mL (≈ 4.64 µM) | 3.1 µg/mL (≈ 4.64 µM)
5 | CC1(C)S[C@@H]2[C@H](NC(=O)[C@H](NC(=O)c3ccc(-c4cccc(NS(C)(=O)=O)c4)[nH]c3=O)c3ccccc3)C(=O)N2[C@H]1C(=O)O [Example 1, N-[6-[3-(Methylsulfonylamino)phenyl]-1,2-dihydro-2-oxonicotinoyl]ampicillin] | 6.3 µg/mL (≈ 9.85 µM) | 25 µg/mL (≈ 39.1 µM) | > 200 µg/mL | 12.5 µg/mL (≈ 19.5 µM) | 1.6 µg/mL (≈ 2.5 µM)
6 | CC1(C)S[C@@H]2[C@H](NC(=O)[C@H](NC(=O)c3ccc(-c4ccc(NS(=O)(=O)CCc5ccncc5)cc4)[nH]c3=O)c3ccccc3)C(=O)N2[C@H]1C(=O)O [Example 8] | 6.3 µg/mL (≈ 8.62 µM) | 100 µg/mL (≈ 137 µM) | 100 µg/mL (≈ 137 µM) | 6.3 µg/mL (≈ 8.62 µM) | 3.1 µg/mL (≈ 4.24 µM)

Other lines, results leading:

Row | MIC (Entero. cloacae) | MIC (Serr. marces.) | MIC (Staph. aureus S18713) | MIC [1] | MIC (Klebs. pneu.) | SMILES
7 | 6.3 µg/mL (≈ 9.08 µM) | 200 µg/mL (≈ 288 µM) | 200 µg/mL (≈ 288 µM) | 6.3 µg/mL (≈ 9.08 µM) | 3.1 µg/mL (≈ 4.47 µM) | CC1(C)S[C@@H]2[C@H](NC(=O)[C@H](NC(=O)c3ccc(-c4ccc(NS(=O)(=O)C(F)(F)F)cc4)[nH]c3=O)c3ccccc3)C(=O)N2[C@H]1C(=O)O [Example 5, N-[6-[4-(Trifluoromethylsulfonylamino)phenyl]-1,2-dihydro-2-oxonicotinoyl]ampicillin]
8 | 6.3 µg/mL (≈ 8.68 µM) | 100 µg/mL (≈ 138 µM) | 100 µg/mL (≈ 138 µM) | 6.3 µg/mL (≈ 8.68 µM) | 3.1 µg/mL (≈ 4.27 µM) | CC(=O)OCCCS(=O)(=O)Nc1ccc(-c2ccc(C(=O)N[C@@H](C(=O)N[C@@H]3C(=O)N4[C@@H]3SC(C)(C)[C@@H]4C(=O)O)c3ccccc3)c(=O)[nH]2)cc1 [Example 7, N-[6-[4-[3-(acetyloxy)propylsulfonylamino]phenyl]-1,2-dihydro-2-oxonicotinoyl]ampicillin]
9 | 6.3 µg/mL (≈ 8.88 µM) | 50 µg/mL (≈ 70.5 µM) | 25 µg/mL (≈ 35.2 µM) | 12.5 µg/mL (≈ 17.6 µM) | 25 µg/mL (≈ 35.2 µM) | CC1(C)S[C@@H]2[C@H](NC(=O)[C@H](NC(=O)c3ccc(-c4ccc(NS(=O)(=O)C(F)(F)F)cc4)[nH]c3=O)c3ccc(O)cc3)C(=O)N2[C@H]1C(=O)O [Example 6, N[6-[4-(Trifluoromethylsulfonylamino)phenyl]-1,2-dihydro-2-oxonicotinoyl]amoxicillin]
10 | 3.1 µg/mL (≈ 4.73 µM) | 100 µg/mL (≈ 153 µM) | 100 µg/mL (≈ 153 µM) | 1.6 µg/mL (≈ 2.44 µM) | 3.1 µg/mL (≈ 4.73 µM) | CC1(C)S[C@@H]2[C@H](NC(=O)[C@H](NC(=O)c3ccc(-c4ccc(NS(C)(=O)=O)cc4)[nH]c3=O)c3ccc(O)cc3)C(=O)N2[C@H]1C(=O)O [Example 3]
